Assay results: patent US20200055839A1 (priority 2017, published 2020)

The compounds below were run on NL-RLuc virus (assay: Inhibition of HIV replication (NL-RLuc virus, luciferase readout in MT-2 cells)). Conditions: Human immunodeficiency virus 1, MT2, 120 h, MT-2 cells infected with NL-RLuc virus, 5 days of incubation, 10% FBS, at least 2 experiments.
Assay type: cell-based
Text: Inhibition of HIV Replication:
A recombinant NL-RLuc proviral clone was constructed in which a section of the nef gene form NL4-3 was replaced with the Renilla Luciferase gene. This virus is fully infectious and can undergo multiple cycles of replication in cell culture. In addition, the luciferous reporter provides a simple and easy method for quantitating the extent of virus growth and consequently, the antiviral activity of test compounds. The plasmid pNLRLuc contains the proviral NL-Rluc DNA cloned into pUC18 at the PvuII site. The NL-RLuc virus was prepared by transfection of 293T cells with the plasmid pNLRLuc. Transfections were performed using the LipofectAMINE PLUS kit form Invitrogen (Carlsbad, Calif.) according to the manufacturer and the virus generated was titered in MT-2 cells. For susceptibility analyses, the titrated virus was used to infect MT-2 cells in the presence of compound, and after 5 days of incubation, cells were processed and quantitated for virus growth by the amount of expressed luciferase. Assay media was RPMI 1640 supplemented with 10% heat inactivated fetal bovine serum (FBS), 100 units/ml penicillin G/100 units/ml streptomycin, 10 mM HEPES buffer pH 7.55 and 2 mM L-glutamine. The results form at least 2 experiments were used to calculate the EC50 values. Luciferase was quantitated using the Dual Luciferase kit form Promega (Madison, Wis.). Susceptibility of viruses to compounds was determined by incubation in the presence of serial dilutions of the compound. The 50% effective concentration (EC50) was calculated by using the exponential form of the median effect equation where (Fa)=1/[1+(ED50/drug conc.)^m](Johnson V A, Byington R T. Infectivity Assay. In Techniques in HIV Research. ed. Aldovini A, Walker B D. 71-76. New York: Stockton Press. 1990).

| Structure (SMILES) | EC50 |
| --- | --- |
| Cc1ncc(-c2cnc(OCCc3c(Cl)cccc3Cl)c(F)c2)c(N2CCC(C)(C)CC2)c1[C@H](OC(C)(C)C)C(=O)O [Example 373, (2S)-2-(tert-butoxy)-2-{6′-[2-(2,6-dichlorophenyl)ethoxy]-4-(4,4-dimethylpiperidin-1-yl)-5′-fluoro-6-methyl-[3,3′-bipyridine]-5-yl}acetic acid] | 3 nM |
| Cc1ncc(-c2ccc(OCCc3ccccc3)cc2)c(N2CCC(C)(C)CC2)c1[C@H](OC(C)(C)C)C(=O)O [Example 265, (S)-2-(tert-Butoxy)-2-(4-(4,4-dimethylpiperidin-1-yl)-2-methyl-5-(4-phenethoxyphenyl)pyridin-3-yl)acetic acid] | 1 nM |
| Cc1ncc(-c2cnc(O[C@@H](C)C(C)C)c(F)c2)c(N2CCC(C)(C)CC2)c1[C@H](OC(C)(C)C)C(=O)O [Example 370, (2S)-2-(tert-butoxy)-2-[4-(4,4-dimethylpiperidin-1-yl)-5′-fluoro-6-methyl-6′-{[(2S)-3-methylbutan-2-yl]oxy}-[3,3′-bipyridine]-5-yl]acetic acid] | 1 nM |
| Cc1nc(Nc2ccccn2)c(-c2ccc(OCCc3ccc(F)cc3)cc2)c(N2CCC(C)(C)CC2)c1[C@H](OC(C)(C)C)C(=O)O [Example 63, (S)-2-(tert-Butoxy)-2-(4-(4,4-dimethylpiperidin-1-yl)-5-(4-(4-fluorophenethoxy)phenyl)-2-methyl-6-(pyridin-2-ylamino)pyridin-3-yl)acetic acid] | 6 nM |
| Cc1nc(-n2ccnc2C)c(-c2ccc(OCCc3ccc(F)cc3)cc2)c(N2CCC(C)(C)CC2)c1[C@H](OC(C)(C)C)C(=O)O [Example 54, (S)-2-(tert-Butoxy)-2-(4-(4,4-dimethylpiperidin-1-yl)-5-(4-(4-fluorophenethoxy)phenyl)-2-methyl-6-(2-methyl-1H-imidazol-1-yl)pyridin-3-yl)acetic acid] | 2 nM |
| Cc1ccccc1CCOc1ccc(-c2cnc(C)c([C@H](OC(C)(C)C)C(=O)O)c2N2CCC(C)(C)CC2)nc1 [Example 289, (2S)-2-(tert-butoxy)-2-[4′-(4,4-dimethylpiperidin-1-yl)-6′-methyl-5-[2-(2-methylphenyl)ethoxy]-[2,3′-bipyridine]-5′-yl]acetic acid] | 1 nM |
| Cc1ncc(-c2cnc(OCCc3ccc(F)c(F)c3)c(F)c2)c(N2CCC(C)(C)CC2)c1[C@H](OC(C)(C)C)C(=O)O [Example 392, (2S)-2-(tert-butoxy)-2-{6′-[2-(3,4-difluorophenyl)ethoxy]-4-(4,4-dimethylpiperidin-1-yl)-5′-fluoro-6-methyl-[3,3′-bipyridine]-5-yl}acetic acid] | 1 nM |
| Cc1cccc(Cl)c1C(C)Oc1ccc(-c2cnc(C)c([C@H](OC(C)(C)C)C(=O)O)c2N2CCC(C)(C)CC2)cn1 (stereo partly drawn) [Example 424, (2S)-2-(tert-Butoxy)-2-(6′-(1-(2-chloro-6-methylphenyl)ethoxy)-4-(4,4-dimethylpiperidin-1-yl)-6-methyl-[3, 3′-bipyridin]-5-yl)acetic acid] | 16 nM |
| Cc1ccc(COc2ccc(-c3cnc(C)c([C@H](OC(C)(C)C)C(=O)O)c3N3CCC(C)(C)CC3)nc2)cc1 [Example 342, (2S)-2-(tert-butoxy)-2-[4′-(4,4-dimethylpiperidin-1-yl)-6′-methyl-5-[(4-methylphenyl)methoxy]-[2,3′-bipyridine]-5′-yl]acetic acid] | 2 nM |
| CCCCNc1ccc(-c2cnc(C)c([C@H](OC(C)(C)C)C(=O)O)c2N2CCC(C)(C)CC2)nc1 [Example 441, (S)-2-(tert-Butoxy)-2-(5-(butylamino)-4′-(4,4-dimethylpiperidin-1-yl)-6′-methyl-[2, 3′-bipyridin]-5′-yl)acetic acid] | 7 nM |
| Cc1nc(N)c(-c2cc(F)c(F)c(F)c2)c(N2CCC(C)(C)CC2)c1[C@H](OC(C)(C)C)C(=O)O [Example 58, (S)-2-(6-Amino-4-(4,4-dimethylpiperidin-1-yl)-2-methyl-5-(3,4,5-trifluorophenyl)pyridin-3-yl)-2-(tert-butoxy)acetic acid] | 18 nM |
| Cc1ncc(-c2ccc(OCCc3c(Cl)cccc3Cl)cc2)c(N2CCC(C)(C)CC2)c1[C@H](OC(C)(C)C)C(=O)O [Example 366, (2S)-2-(tert-butoxy)-2-(5-{4-[2-(2,6-dichlorophenyl)ethoxy]phenyl}-4-(4,4-dimethylpiperidin-1-yl)-2-methylpyridin-3-yl)acetic acid] | 5 nM |
| Cc1nc(-n2cncc2C)c(-c2ccc(OCCc3ccc(F)cc3)cc2)c(N2CCC(C)(C)CC2)c1[C@H](OC(C)(C)C)C(=O)O (single isomer, unassigned) [Example 55] | 3 nM |
| COc1ccc(-c2cnc(C)c([C@H](OC(C)(C)C)C(=O)O)c2N2CCC(C)(C)CC2)nn1 [Example 15, (S)-2-(tert-Butoxy)-2-(4-(4,4-dimethylpiperidin-1-yl)-5-(6-methoxypyridazin-3-yl)-2-methylpyridin-3-yl)acetic acid] | 16 nM |
| Cc1ncc(-c2ccc(OCCc3ccc(F)cc3)cn2)c(N2CCC(C)(C)CC2)c1[C@H](OC(C)(C)C)C(=O)O [Example 126, (2S)-2-(tert-Butoxy)-2-[4′-(4,4-dimethylpiperidin-1-yl)-5-[2-(4-fluorophenyl)ethoxy]-6′-methyl-[2, 3′-bipyridine]-5′-yl]acetic acid] | 0.4 nM |
| CCCOc1ccc(-c2cnc(C)c([C@H](OC(C)(C)C)C(=O)O)c2N2CCC(C)(C)CC2)nc1 [Example 318, (2S)-2-(tert-butoxy)-2-[4′-(4,4-dimethylpiperidin-1-yl)-6′-methyl-5-propoxy-[2,3′-bipyridine]-5′-yl]acetic acid] | 3 nM |
| Cc1ncc(-c2cnc(OCCc3ccccc3)c(F)c2)c(N2CCC(C)(C)CC2)c1[C@H](OC(C)(C)C)C(=O)O [Example 240, (S)-2-(tert-Butoxy)-2-(4-(4,4-dimethylpiperidin-1-yl)-5′-fluoro-6-methyl-6′-phenethoxy-[3,3′-bipyridin]-5-yl)acetic acid] | 1 nM |
| Cc1ncc(-c2cnc(OCc3ccccc3)c(F)c2)c(N2CCC(C)(C)CC2)c1[C@H](OC(C)(C)C)C(=O)O [Example 378, (2S)-2-[6′-(benzyloxy)-4-(4,4-dimethylpiperidin-1-yl)-5′-fluoro-6-methyl-[3,3′-bipyridine]-5-yl]-2-(tert-butoxy)acetic acid] | 2 nM |
| Cc1nc(OCCc2cccc(F)c2)ccc1-c1cnc(C)c([C@H](OC(C)(C)C)C(=O)O)c1N1CCC(C)(C)CC1 [Example 261, (S)-2-(tert-Butoxy)-2-(4-(4,4-dimethylpiperidin-1-yl)-6′-(3-fluorophenethoxy)-2′,6-dimethyl-[3, 3′-bipyridin]-5-yl)acetic acid] | 28 nM |
| COc1ccc(-c2c(CN3CCC4(CCC4)CC3)nc(C)c([C@H](OC(C)(C)C)C(=O)O)c2N2CCC(C)(C)CC2)cc1 [Example 192, (2S)-2-[6-({7-Azaspiro[3.5]nonan-7-yl}methyl)-4-(4,4-dimethylpiperidin-1-yl)-5-(4-methoxyphenyl)-2-methylpyridin-3-yl]-2-(tert-butoxy)acetic acid] | 1 nM |
| Cc1nc(NCCN2CCOCC2)c(-c2ccc(OCCc3ccc(F)cc3)cc2)c(N2CCC(C)(C)CC2)c1[C@H](OC(C)(C)C)C(=O)O [Example 26, (S)-2-(tert-Butoxy)-2-(4-(4,4-dimethylpiperidin-1-yl)-5-(4-(4-fluorophenethoxy)phenyl)-2-methyl-6-((2-morpholinoethyl)amino)pyridin-3-yl)acetic acid] | 0.5 nM |
| Cc1cccc(-c2cnc(C)c([C@H](OC(C)(C)C)C(=O)O)c2N2CCC(C)(C)CC2)c1F [Example 163, (2S)-2-(tert-Butoxy)-2-[4-(4,4-dimethylpiperidin-1-yl)-5-(2-fluoro-3-methylphenyl)-2-methylpyridin-3-yl]acetic acid] | 6 nM |
| Cc1ncc(-c2ccc3c(c2)OCO3)c(N2CCC(C)(C)CC2)c1[C@H](OC(C)(C)C)C(=O)O [Example 180, (2S)-2-[5-(2H-1,3-Benzodioxol-5-yl)-4-(4,4-dimethylpiperidin-1-yl)-2-methylpyridin-3-yl]-2-(tert-butoxy)acetic acid] | 3 nM |
| CC(C)COc1ccc(-c2cnc(CF)c([C@H](OC(C)(C)C)C(=O)O)c2N2CCC(C)(C)CC2)nc1 [Example 278, (S)-2-(tert-Butoxy)-2-(4′-(4,4-dimethylpiperidin-1-yl)-6′-(fluoromethyl)-5-isobutoxy-[2, 3′-bipyridin]-5′-yl)acetic acid] | 4 nM |
| Cc1ncc(-c2cccc(-c3cccc(Cl)c3)c2)c(N2CCC(C)(C)CC2)c1[C@H](OC(C)(C)C)C(=O)O [Example 144, (2S)-2-(tert-butoxy)-2-(5-{3′-chloro-[1,1′-biphenyl]-3-yl}-4-(4,4-dimethylpiperidin-1-yl)-2-methylpyridin-3-yl)acetic acid] | 78 nM |
| Cc1ncc(-c2ccc(OCCc3ccc(F)cc3)nc2F)c(N2CCC(C)(C)CC2)c1[C@H](OC(C)(C)C)C(=O)O (single isomer, unassigned) [Example 263] | 3 nM |
